What was measured:
Format in all cases: cell-based, human
[1] = tested on: HCT-116 cells; experiment: Anti-proliferative activity, SRB assay, HCT-116; settings: for IC50: SRB assay, 72 h exposure, mean ± SD of three separate experiments; for HCT-116 SI (selectivity index): ratio of IC50 for normal cells (WI-38) to IC50 for HCT-116
Text: Several of these derivatives were reported as acting as competitive inhibitors of different tyrosine kinases, with potent cytotoxic activity against various cell lines[58]^,[59]. […] Thus, in this study a novel series of benzoxazole-benzamide conjugates was initially evaluated for their potential anti-cancer activity against colon cancer cell line (HCT-116), breast cancer cell line (MCF-7) and normal human fibroblasts (WI-38), using the Sulforhodamine B colorimetric (SRB) assay.
2.1. Anti-proliferative activity against HCT-116 and MCF-7 human cancer cells lines.
The sulforhodamine B (SRB) assays were performed according to Skehan et al..
Briefly, exponentially growing cells were trypsinized, counted and seeded at the appropriate densities (5000 cells/100 μL/ well) into 96-well microtiter plates. Cells were incubated in a humidified atmosphere at 37 °C for 24 h. Then, the cells were exposed to the tested compounds at the desired concentrations (0.01, 0.1, 1, 10, and 100 μM) or to 1% dimethyl sulfoxide (DMSO) for 72 h. At the end of the treatment period, the media were removed, and the cells were fixed with 10% trichloroacetic acid at 4 °C for 1 h. Following, the cells were washed with tap water four times and incubated with SRB 0.4% for 30 min. Excess dye was removed by washing repeatedly with 1% (vol/vol) acetic acid. The protein-bound dye was dissolved in 10 mM Tris base solution for (optical density) OD determination at 510 nm using a Spectra Max plus Microplate Reader (Molecular Devices, CA). Cell viability was expressed relative to the untreated control cells. […]

[2] = tested on: HCT-116 cells; experiment: Cell cycle analysis by DNA flow cytometry, HCT-116; settings: HCT116, 24 h, compound at its IC50 (supplement: 10 μM); for %Pre-G1: control 4.52; for %G2-M: control 18.93; for %S: control 31.56; for %G0-G1: control 49.51
Protocol: It is clearly known that generally the cytotoxic agents exert their anti-proliferative effect via cell cycle arrest at a specific phase. In the present study, due to the excellent in-vitro anti-proliferative activity of conjugates 1 and 11 against both HCT-116 and MCF-7 cancer cell lines as well as their excellent VEGFR-2 inhibitory activities, cell cycle analysis have been carried out for both compounds. […]
2.3. Cell cycle analysis.
HCT-116 and MCF-7 cells were seeded at concentrations of 1 x 10^5 cells per well in a 6-well plate, and then incubated for 24 h. The cells were treated for 24 h with vehicles (0.1 percent DMSO) or 10 μM of compounds 1 or 11. Using ice-cold, 70 percent ethanol at 4 °C, cells were harvested and fixed for 12 h. Ethanol was removed, and the cells were washed by cold PBS.
Then, the cells were incubated in 0.5 mL of PBS containing 1 mg/mL Ranse for 30 min at 37 °C.
In the dark, the cells were stained with propidium iodide for 30 min. Flow cytometer was then used to detect contents of DNA [63]. […]

[3] = tested on: Bcl-2; experiment: Western blot of Bcl-2 expression in MCF-7; settings: MCF-7, Western blot, normalised to β-actin
Text: (§1) It is well known that the anti-apoptotic proteins Bcl-2 and Bcl-xL are mainly overexpressed in various types of cancer, causing survival of cancer cells and/or drug resistance. Therefore, inhibition of these proteins expression leads to cancer cell death and has been used as a strategy for anticancer drug development. In this study, the impact of compounds 1 and 11 on Bcl-2 and Bcl-xL expression in HCT-116 and MCF-7 cancer cell lines was examined using Western blot analysis and all the data were normalised to β-actin (Figure 9).
(§2) 2.5. Impact of compounds 1 and 11 on the level of anti-apoptotic markers (Bcl-2, and Bcl-xL).
(§3) Gel electrophoresis and immuno-blot analysis of proteins (Western Blot) method was used to examine the effect of compounds 1 and 11 on the level of anti-apoptotic markers (Bcl-2, and Bcl-xL). […]
(§4) The cells were then immediately frozen at −20 °C for 1 h for further lysis and collected by cell scraper and sonicated 2×10s. Total protein concentrations were determined colorimetrically using Bradford method before proceeding to the western blotting. […] Briefly, the membranes were incubated for 1 min with a mixture of equal volumes from ECL solution A and ECL solution B. The chemiluminescent signals were captured using a CCD camera-based imager (Chemi Doc imager, Biorad, USA), and the band intensities were then measured with β-actin as an internal reference protein. […]

[4] = tested on: Bcl-xL; experiment: Western blot of Bcl-xL expression in MCF-7; settings: MCF-7, Western blot, normalised to β-actin
Text: as §1, §2, §3, §4

Structure (SMILES) | IC50 ([1]; Homo sapiens, HCT-116, 72 h) [µM] | HCT-116 SI (selectivity index) [1] | %Pre-G1 [2] [%] | %G2-M [2] [%] | %S [2] [%] | %G0-G1 [2] [%] | Bcl-2 expression [3] | Bcl-xL expression [4] | IC50 [1] [µM]
O=C(CSc1nc2cc(Cl)ccc2o1)Nc1ccc(C(=O)Nc2ccc(Cl)cc2)cc1 [Compound 11] | 12.2 ± 0.007 | 8.5 | 17.41 | 28.44 | 26.19 | 45.37 | inhibited | inhibited | –
O=C(CSc1nc2ccccc2o1)Nc1ccc(C(=O)NC2CCCCC2)cc1 [Compound 1] | 7.2 ± 0.01 | 5.3 | 15.36 | 24.41 | 33.25 | 42.34 | inhibited | inhibited | 7.8 ± 0.015

Source: paper PMC9176662, “Design, synthesis, molecular modeling and biological evaluation of novel Benzoxazole-Benzamide conjugates via a 2-Thioacetamido linker as potential anti-proliferative agents, VEGFR-2 inhibitors and apoptotic inducers” (Journal of Enzyme Inhibition and Medicinal Chemistry, 2022)
